Test results published in patent US20100173780A1, “POLYPHENOL-CONTENT-[…] FOR PLANT” (COSMO OIL CO., LTD., priority 2006, published 2010).

How the values were obtained:
pepper = test: Amount of polyphenol in pepper after ALA treatment (HPLC); format: in vivo, pepper (Solanaceae, genus cayenne; conditions: pepper (race Habanero), 1 ppm
Experimental: (§1) Two containers (length: 0.75 m, width 0.5 m) were provided and soil was placed in each of them. A Chemical fertilizer (nitrogen content:phosphorus content:potassium content=15:15:15 as mass ratio) was used as a base fertilizer and young plants of green pepper (Solanaceae, genus cayenne, race Miogi) were grown for two months according to a conventional method. Water was applied to the young plants once a day by means of a sprinkling can. Prior to one month from harvest, treatment was conducted once a week with 50 mL per container of each aqueous solution containing 0 ppm (control) or 1 ppm of 5-aminolevulinic acid hydrochloride to which a spreading agent, Approach BI (manufactured by Kao Corporation) had been added in a ratio of 0.1% by mass. After harvest, 3 g of green pepper was finely cut with scissors and a kitchen knife and then homogenized after addition of water. The homogenized one was diluted up to 6 mL with distilled water (stock solution) and the stock solution was divided into three even portions and used in the following extraction methods (1) to (3). (1) Three mL of ethyl acetate was added to 2 mL of the stock solution and the resultant one was centrifuged at 3000 rpm for 10 minutes. The supernatant was transferred to a spit tube and was evaporated to dryness with nitrogen gas while the tube was immersed in a warm bath at about 60° C. Thereto were added 200 μL of methanol and 100 μL of distilled water, thereby the volume being made 300 μL. (2) Two mL of methanol was added to 2 mL of the stock solution and the resultant one was centrifuged at 3000 rpm for 10 minutes. The supernatant was transferred to a spit tube and was evaporated to dryness with nitrogen gas while the tube was immersed in a warm bath at about 60° C. Thereto were added 200 μL of methanol and 100 μL of distilled water, thereby the volume being made 300 μL. (3) One mL of 0.1N hydrochloric acid was added to 2 mL of the stock solution and the resultant one was transferred to a plastic tube and kept in a drive-lock bath at 96.5° C. for 1 hour to effect hydrolysis. Five mL of ethyl acetate was added thereto and the resultant one was centrifuged at 3000 rpm for 10 minutes. The supernatant was transferred to a spit tube and was evaporated to dryness with nitrogen gas while the tube was immersed in a warm bath at about 60° C. Thereto were added 200 μL of methanol and 100 μL of distilled water, thereby the volume being made 300 μL. The samples from (1) to (3) were measured by high-performance liquid chromatography (HPLC) (analytical conditions: the measurement was performed at a flow rate of 1.0 mL/min at a column temperature of 40° C. using a wavelength of 350 nm, using Liquid A (80% by volume of methanol/5% by volume of acetic acid) or Liquid B (10% by volume of methanol/5% by volume of acetic acid) as an eluent, and using a column of Hichrom5C18, T898, 4.6 mm×[…] (manufactured by LLOYD′S REGISTER QUALITY COMPANY) and each concentration was calculated based on standard solutions. In Table 1, the most highly extracted value was cited among the results measured with each of the extraction methods (1) to (3). Moreover, the sum of individual concentration of polyphenol used in this time was regarded as the total amount of polyphenol.
(§2) Two containers (length: 0.75 m, width 0.5 m) were provided and soil was placed in each of them. A Chemical fertilizer (nitrogen content:phosphorus content:potassium content=15:15:15 as mass ratio) was used as a base fertilizer and young plants of pepper (Solanaceae, genus cayenne, race Habanero) were planted according to a conventional method and water was applied once a day by means of a sprinkling can. Prior to one month from harvest, treatment was conducted once a week with 50 mL per container of each aqueous solution containing 0 ppm (control) or 1 ppm of 5-aminolevulinic acid hydrochloride. After harvest, the content of polyphenol was analyzed in the same manner as in Example 1.

pear = test: Amount of polyphenol in pear after ALA treatment (HPLC); format: in vivo, pear (Rosaceae, genus pear, race Kosui); conditions: 3 ppm
Experimental: as §1
Prior to 150 days from harvest, treatment to pear
([…], genus pear, race Kosui) grown in a production farm field was conducted once a fortnight with a spraying amount of 300 L/tan of each aqueous solution containing 0 ppm (control) or 3 ppm of 5-aminolevulinic acid hydrochloride to which a spreading agent, Approach BI (manufactured by Kao Corporation) had been added in a ratio of 0.1% by mass. After harvest, the content of polyphenol was analyzed by HPLC in the same manner as in Example 1.

tea = test: Amount of polyphenol in tealeaf after ALA treatment (HPLC); format: in vivo, tea (Camelliaceae, genus camellia, race Yabukita); conditions: 3 ppm
Experimental: as §1
(§3) Prior to 210 days from harvest, treatment to tea (Camelliaceae, genus camellia, race Yabukita) grown in a production farm field was conducted once a month with a spraying amount of 100 L/tan of each aqueous solution containing 0 ppm (control) or 3 ppm of 5-aminolevulinic acid hydrochloride. After harvest, the content of polyphenol was analyzed by HPLC in the same manner as in Example 1.

green soybean = test: Amount of polyphenol in green soybean after ALA treatment (HPLC); format: in vivo, green soybean (Lagminosae, genus soybean, race Hakusan); conditions: 1 ppm, 100 L/tan once a fortnight after flowering
Experimental: as §1
as §3, with “green soybean (Lagminosae,” for “tea (Camelliaceae,”, “soybean,” for “camellia,”, “Hakusan)” for “Yabukita)”, “fortnight after flowering” for “month”, “1” for “3”

asparagus = test: Amount of polyphenol in asparagus after ALA treatment (HPLC); format: in vivo, asparagus (Liliaceae, genus asparagus, race Welcome); conditions: 3 ppm
Experimental: as §1
Prior to 150 days from harvest, treatment to tetraennial-root asparagus (Liliaceae, genus asparagus, race Welcome) grown in a vertical stem form in a greenhouse was conducted once a fortnight with a spraying amount of 100 L/tan of each solution containing 0 ppm (control) or 3 ppm of 5-aminolevulinic acid hydrochloride. After harvest, the content of polyphenol was analyzed in the same manner as in Example 1.

parsley = test: Amount of polyphenol in parsley after ALA treatment (HPLC); format: in vivo, parsley (Umbelliferae, genus parsley, race Paramount); conditions: 1 ppm
Experimental: as §1
as §2, with “seeds” for “young plants”, “parsley (Umbelliferae,” for “pepper (Solanaceae,”, “parsley,” for “cayenne,”, “Paramount)” for “Habanero)”

green pepper = test: Amount of polyphenol in green pepper after ALA treatment (HPLC); format: in vivo, green pepper (Solanaceae, genus cayenne, race Miogi)
Experimental: as §1

[1] = 50 mL per container once a week from one month before harvest, HPLC
[2] = 50 mL per container once a week from one month before harvest, sum of the individual polyphenols
[3] = 50 mL per container once a week, versus 0 ppm control
[4] = 300 L/tan once a fortnight from 150 days before harvest, HPLC
[5] = 100 L/tan once a month from 210 days before harvest, HPLC
[6] = greenhouse, 100 L/tan once a fortnight from 150 days before harvest, HPLC
[7] = 1 ppm, 50 mL per container once a week from one month before harvest, HPLC, highest of extraction methods (1)-(3)

Cl.NCC(=O)CCC(=O)O [ALA, 5-aminolevulinic acid hydrochloride]
Apigenin amount in pepper (pepper; [1]): 2570 ng/g | Caffeic acid amount in pepper (pepper; [1]): 5520 ng/g | Chlorogenic acid amount in pepper (pepper; [1]): 18020 ng/g | Ferulic acid amount in pepper (pepper; [1]): 9270 ng/g | Hesperetin amount in pepper (pepper; [1]): 0 ng/g | Isorhamnetin amount in pepper (pepper; [1]): 270 ng/g | Kaempferol amount in pepper (pepper; [1]): 0 ng/g | Luteolin amount in pepper (pepper; [1]): 62060 ng/g | Quercetin amount in pepper (pepper; [1]): 26700 ng/g | Rutin amount in pepper (pepper; [1]): 457080 ng/g | Total amount of polyphenol in pepper (pepper; [2]): 581490 ng/g | ALA/control ratio of total amount of polyphenol in pepper (pepper; [3]): 1.4 | Apigenin amount in pear (pear; [4]): 95 ng/g | Caffeic acid amount in pear (pear; [4]): 8400 ng/g | Chlorogenic acid amount in pear (pear; [4]): 1819 ng/g | Ferulic acid amount in pear (pear; [4]): 12456 ng/g | Hesperetin amount in pear (pear; [4]): 81 ng/g | Isorhamnetin amount in pear (pear; [4]): 567 ng/g | Kaempferol amount in pear (pear; [4]): 18 ng/g | Luteolin amount in pear (pear; [4]): 61 ng/g | Quercetin amount in pear (pear; [4]): 111 ng/g | Rutin amount in pear (pear; [4]): 1595 ng/g | Total amount of polyphenol in pear (pear; 300 L/tan once a fortnight from 150 days before harvest, sum of the individual polyphenols): 25202 ng/g | ALA/control ratio of total amount of polyphenol in pear (pear; 300 L/tan once a fortnight, versus 0 ppm control): 2.3 | Apigenin amount in tealeaf (tea; [5]): 915 ng/g | Caffeic acid amount in tealeaf (tea; [5]): 0 ng/g | Chlorogenic acid amount in tealeaf (tea; [5]): 3474 ng/g | Ferulic acid amount in tealeaf (tea; [5]): 17172 ng/g | Hesperetin amount in tealeaf (tea; [5]): 25887 ng/g | Isorhamnetin amount in tealeaf (tea; [5]): 3881 ng/g | Kaempferol amount in tealeaf (tea; [5]): 970 ng/g | Luteolin amount in tealeaf (tea; [5]): 2181 ng/g | Quercetin amount in tealeaf (tea; [5]): 8249 ng/g | Rutin amount in tealeaf (tea; [5]): 4519 ng/g | Total amount of polyphenol in tealeaf (tea; 100 L/tan once a month from 210 days before harvest, sum of the individual polyphenols): 67248 ng/g | ALA/control ratio of total amount of polyphenol in tealeaf (tea; 100 L/tan once a month, versus 0 ppm control): 1.1 | Apigenin amount in green soybean (green soybean; HPLC): 11 ng/g | Caffeic acid amount in green soybean (green soybean; HPLC): 0 ng/g | Chlorogenic acid amount in green soybean (green soybean; HPLC): 17 ng/g | Ferulic acid amount in green soybean (green soybean; HPLC): 3963 ng/g | Hesperetin amount in green soybean (green soybean; HPLC): 1841 ng/g | Isorhamnetin amount in green soybean (green soybean; HPLC): 0 ng/g | Kaempferol amount in green soybean (green soybean; HPLC): 0 ng/g | Luteolin amount in green soybean (green soybean; HPLC): 19 ng/g | Quercetin amount in green soybean (green soybean; HPLC): 261 ng/g | Rutin amount in green soybean (green soybean; HPLC): 1032 ng/g | Total amount of polyphenol in green soybean (green soybean; sum of the individual polyphenols): 7143 ng/g | ALA/control ratio of total amount of polyphenol in green soybean (green soybean; versus 0 ppm control): 1.4 | ALA/control ratio of total amount of polyphenol in asparagus (asparagus; 100 L/tan once a fortnight, versus 0 ppm control): 2.3 | Apigenin amount in asparagus (asparagus; [6]): 456 ng/g | Caffeic acid amount in asparagus (asparagus; [6]): 0 ng/g | Chlorogenic acid amount in asparagus (asparagus; [6]): 2983 ng/g | Ferulic acid amount in asparagus (asparagus; [6]): 9899 ng/g | Hesperetin amount in asparagus (asparagus; [6]): 20198 ng/g | Isorhamnetin amount in asparagus (asparagus; [6]): 1022 ng/g | Kaempferol amount in asparagus (asparagus; [6]): 723 ng/g | Luteolin amount in asparagus (asparagus; [6]): 1923 ng/g | Quercetin amount in asparagus (asparagus; [6]): 5533 ng/g | Rutin amount in asparagus (asparagus; [6]): 40234 ng/g | Total amount of polyphenol in asparagus (asparagus; greenhouse, 100 L/tan once a fortnight from 150 days before harvest, sum of the individual polyphenols): 82971 ng/g | Apigenin amount in parsley (parsley; [1]): 1099 ng/g | Caffeic acid amount in parsley (parsley; [1]): 4240 ng/g | Chlorogenic acid amount in parsley (parsley; [1]): 20820 ng/g | Ferulic acid amount in parsley (parsley; [1]): 0 ng/g | Hesperetin amount in parsley (parsley; [1]): 110685 ng/g | Isorhamnetin amount in parsley (parsley; [1]): 4388 ng/g | Kaempferol amount in parsley (parsley; [1]): 10321 ng/g | Luteolin amount in parsley (parsley; [1]): 2733 ng/g | Quercetin amount in parsley (parsley; [1]): 37699 ng/g | Rutin amount in parsley (parsley; [1]): 28977 ng/g | Total amount of polyphenol in parsley (parsley; [2]): 220962 ng/g | ALA/control ratio of total amount of polyphenol in parsley (parsley; [3]): 3.5 | Total amount of polyphenol in green pepper (green pepper; 1 ppm once a week from one month before harvest, sum of the individual polyphenol concentrations): 48824 ng/g | ALA/control ratio of total amount of polyphenol in green pepper (green pepper; 1 ppm once a week from one month before harvest, versus 0 ppm control): 9.4 | Apigenin amount in green pepper (green pepper; [7]): 0 ng/g | Caffeic acid amount in green pepper (green pepper; [7]): 276 ng/g | Chlorogenic acid amount in green pepper (green pepper; [7]): 4856 ng/g | Ferulic acid amount in green pepper (green pepper; [7]): 5680 ng/g | Hesperetin amount in green pepper (green pepper; [7]): 236 ng/g | Isorhamnetin amount in green pepper (green pepper; [7]): 1849 ng/g | Kaempferol amount in green pepper (green pepper; [7]): 668 ng/g | Luteolin amount in green pepper (green pepper; [7]): 644 ng/g | Quercetin amount in green pepper (green pepper; [7]): 28919 ng/g | Rutin amount in green pepper (green pepper; [7]): 5696 ng/g
